# Results: ChEMBL document CHEMBL1201862, “PubChem BioAssay data set” (2004)
#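 Cells were grown in 96-well plates and exposed to each compound for 48 hours at five concentrations; endpoints were interpolated linearly between bracketing concentrations, or set to the highest concentration if not reached. Here, GI50 denotes the concentration required for 50% inhibition of growth.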 Activity calls are given as the source filed them. Rule as the data show it: active = GI50 up to about 1.1 µM and inactive = higher.
# How the values were obtained:
# Test in all cases: NCI anticancer screen, dose series, 48 h
# SK-MEL-5 = tested on: SK-MEL-5
# SNB-19 = tested on: SNB-19
# HCT-15 = tested on: HCT-15
# OVCAR-4 = tested on: OVCAR-4
# SF-539 = tested on: SF-539
# HCC 2998 = tested on: HCC 2998
# MOLT-4 = tested on: MOLT-4
# TK-10 = tested on: TK-10
# 786-0 = tested on: 786-0
# NCI-H460 = tested on: NCI-H460
# SK-OV-3 = tested on: SK-OV-3
# MDA-MB-231 = tested on: MDA-MB-231
# HOP-62 = tested on: HOP-62
# SW-620 = tested on: SW-620
# HCT-116 = tested on: HCT-116
# A549 = tested on: A549
# SF-295 = tested on: SF-295
# UO-31 = tested on: UO-31
# CCRF-CEM = tested on: CCRF-CEM
# NCI-H23 = tested on: NCI-H23
# SNB-75 = tested on: SNB-75
# OVCAR-8 = tested on: OVCAR-8
# MCF7 = tested on: MCF7
# NCI-H226 = tested on: NCI-H226
# DU-145 = tested on: DU-145
# KM12 = tested on: KM12
# EKVX = tested on: EKVX
# MDA-N = tested on: MDA-N
# OVCAR-5 = tested on: OVCAR-5
# PC-3 = tested on: PC-3
# K562 = tested on: K562
# COLO 205 = tested on: COLO 205
# SK-MEL-28 = tested on: SK-MEL-28
# T47D = tested on: T47D
# HL-60 = tested on: HL-60
# HOP-92 = tested on: HOP-92
# RXF 393 = tested on: RXF 393
# RPMI-8226 = tested on: RPMI-8226
# SN12C = tested on: SN12C
# SK-MEL-2 = tested on: SK-MEL-2
# UACC-257 = tested on: UACC-257
# IGROV-1 = tested on: IGROV-1
# M14 = tested on: M14
# OVCAR-3 = tested on: OVCAR-3
# ACHN = tested on: ACHN
# SR = tested on: SR
# LOX IMVI = tested on: LOX IMVI
# SF-268 = tested on: SF-268
# A498 = tested on: A498
# HT-29 = tested on: HT-29
# UACC-62 = tested on: UACC-62
# NCI-H522 = tested on: NCI-H522
# MDA-MB-435 = tested on: MDA-MB-435
# Hs-578T = tested on: Hs-578T
# U-251 = tested on: U-251
# Malme-3M = tested on: Malme-3M
# NCI/ADR-RES = tested on: NCI/ADR-RES
# CAKI-1 = tested on: CAKI-1
smiles,measurement,setting,value
Cn1c(=S)sc2nc3ccccc3n2c1=S,GI50,SK-MEL-5,12.2 µM (inactive)
same,GI50,SNB-19,13.7 µM (inactive)
same,GI50,HCT-15,13.2 µM
same,GI50,OVCAR-4,16 µM (inactive)
same,GI50,SF-539,12.8 µM (inactive)
same,GI50,HCC 2998,19.6 µM (inactive)
same,GI50,MOLT-4,5.36 µM (inactive)
same,GI50,TK-10,21.2 µM (inactive)
same,GI50,786-0,12.7 µM (inactive)
same,GI50,NCI-H460,9.86 µM (inactive)
same,GI50,SK-OV-3,10.4 µM (inactive)
same,GI50,MDA-MB-231,19.3 µM (inactive)
same,GI50,HOP-62,17 µM (inactive)
same,GI50,SW-620,12 µM (inactive)
same,GI50,HCT-116,2.49 µM (inactive)
same,GI50,A549,24.7 µM (inactive)
same,GI50,SF-295,18.8 µM (inactive)
same,GI50,UO-31,5.55 µM (inactive)
same,GI50,CCRF-CEM,3.52 µM (inactive)
same,GI50,NCI-H23,12.4 µM (inactive)
same,GI50,SNB-75,16.5 µM (inactive)
same,GI50,OVCAR-8,14.3 µM (inactive)
same,GI50,MCF7,2.26 µM (inactive)
same,GI50,NCI-H226,21.4 µM (inactive)
same,GI50,DU-145,5.35 µM (inactive)
same,GI50,KM12,10.2 µM (inactive)
same,GI50,EKVX,17.3 µM (inactive)
same,GI50,MDA-N,12.6 µM (inactive)
same,GI50,OVCAR-5,15.3 µM (inactive)
same,GI50,PC-3,19.6 µM (inactive)
same,GI50,K562,2 µM (inactive)
same,GI50,COLO 205,9.51 µM (inactive)
same,GI50,SK-MEL-28,12.4 µM (inactive)
same,GI50,T47D,9.84 µM (inactive)
same,GI50,HL-60,2.49 µM (inactive)
same,GI50,HOP-92,8.93 µM (inactive)
same,GI50,RXF 393,10.9 µM (inactive)
same,GI50,RPMI-8226,3.78 µM (inactive)
same,GI50,SN12C,10.6 µM (inactive)
same,GI50,SK-MEL-2,51.1 µM (inactive)
same,GI50,UACC-257,12.3 µM (inactive)
same,GI50,IGROV-1,12.8 µM (inactive)
same,GI50,M14,4.47 µM (inactive)
same,GI50,OVCAR-3,12.1 µM (inactive)
same,GI50,ACHN,11.3 µM (inactive)
same,GI50,SR,2.37 µM (inactive)
same,GI50,LOX IMVI,5.97 µM (inactive)
same,GI50,SF-268,10.9 µM (inactive)
same,GI50,A498,19.3 µM (inactive)
same,GI50,HT-29,5.81 µM (inactive)
same,GI50,UACC-62,11.4 µM (inactive)
same,GI50,NCI-H522,4.21 µM (inactive)
same,GI50,MDA-MB-435,7.45 µM (inactive)
same,GI50,Hs-578T,21.6 µM (inactive)
same,GI50,U-251,11.5 µM (inactive)
same,GI50,Malme-3M,13.9 µM (inactive)
same,GI50,NCI/ADR-RES,13.4 µM (inactive)
same,GI50,CAKI-1,14.6 µM (inactive)
C=C1CN=C(Nc2ccc(F)cc2F)S1,GI50,SK-MEL-5,> 100 µM (inactive)
same,GI50,SNB-19,> 100 µM (inactive)
same,GI50,HCT-15,> 100 µM
same,GI50,OVCAR-4,> 100 µM (inactive)
same,GI50,SF-539,> 100 µM (inactive)
same,GI50,HCC 2998,> 100 µM (inactive)
same,GI50,MOLT-4,31.7 µM (inactive)
same,GI50,TK-10,> 100 µM (inactive)
same,GI50,786-0,> 100 µM (inactive)
same,GI50,NCI-H460,> 100 µM (inactive)
same,GI50,SK-OV-3,> 100 µM (inactive)
same,GI50,MDA-MB-231,> 100 µM (inactive)
same,GI50,HOP-62,> 100 µM (inactive)
same,GI50,SW-620,> 100 µM (inactive)
same,GI50,HCT-116,> 100 µM (inactive)
same,GI50,A549,> 100 µM (inactive)
same,GI50,SF-295,> 100 µM (inactive)
same,GI50,UO-31,> 100 µM (inactive)
same,GI50,CCRF-CEM,18.3 µM (inactive)
same,GI50,NCI-H23,> 100 µM (inactive)
same,GI50,SNB-75,32.1 µM (inactive)
same,GI50,OVCAR-8,> 100 µM (inactive)
same,GI50,MCF7,28 µM (inactive)
same,GI50,DU-145,> 100 µM (inactive)
same,GI50,KM12,> 100 µM (inactive)
same,GI50,EKVX,> 100 µM (inactive)
same,GI50,MDA-N,> 100 µM (inactive)
same,GI50,OVCAR-5,> 100 µM (inactive)
same,GI50,PC-3,> 100 µM (inactive)
same,GI50,K562,30.5 µM (inactive)
same,GI50,COLO 205,> 100 µM (inactive)
same,GI50,SK-MEL-28,> 100 µM (inactive)
same,GI50,T47D,> 100 µM (inactive)
same,GI50,HL-60,31.5 µM (inactive)
same,GI50,HOP-92,2.51 µM (inactive)
same,GI50,RPMI-8226,49.7 µM (inactive)
same,GI50,SN12C,> 100 µM (inactive)
same,GI50,SK-MEL-2,> 100 µM (inactive)
same,GI50,UACC-257,> 100 µM (inactive)
same,GI50,IGROV-1,> 100 µM (inactive)
same,GI50,ACHN,> 100 µM (inactive)
same,GI50,SR,36.8 µM (inactive)
same,GI50,LOX IMVI,18.9 µM (inactive)
same,GI50,SF-268,> 100 µM (inactive)
same,GI50,A498,> 100 µM (inactive)
same,GI50,HT-29,> 100 µM (inactive)
same,GI50,Hs-578T,> 100 µM (inactive)
same,GI50,U-251,> 100 µM (inactive)
same,GI50,Malme-3M,> 100 µM (inactive)
same,GI50,NCI/ADR-RES,> 100 µM (inactive)
same,GI50,CAKI-1,> 100 µM (inactive)
COc1ccc(C[C@H]2COC(=O)[C@@H]2Cc2ccc(O)cc2)cc1OC,GI50,SK-MEL-5,> 100 µM (inactive)
same,GI50,SNB-19,> 100 µM (inactive)
same,GI50,OVCAR-4,> 100 µM (inactive)
same,GI50,MOLT-4,> 100 µM (inactive)
same,GI50,TK-10,> 100 µM (inactive)
same,GI50,786-0,> 100 µM (inactive)
same,GI50,NCI-H460,> 100 µM (inactive)
same,GI50,HOP-62,> 100 µM (inactive)
same,GI50,SW-620,> 100 µM (inactive)
same,GI50,HCT-116,> 100 µM (inactive)
same,GI50,A549,> 10 µM (inactive)
same,GI50,SF-295,> 100 µM (inactive)
same,GI50,CCRF-CEM,> 100 µM (inactive)
same,GI50,NCI-H23,> 100 µM (inactive)
same,GI50,OVCAR-8,> 100 µM (inactive)
same,GI50,NCI-H226,> 100 µM (inactive)
same,GI50,DU-145,> 100 µM (inactive)
same,GI50,EKVX,> 100 µM (inactive)
same,GI50,OVCAR-5,> 100 µM (inactive)
same,GI50,K562,> 100 µM (inactive)
same,GI50,SK-MEL-28,> 100 µM (inactive)
same,GI50,HOP-92,> 100 µM (inactive)
same,GI50,RPMI-8226,> 100 µM (inactive)
same,GI50,UACC-257,> 100 µM (inactive)
same,GI50,IGROV-1,> 100 µM (inactive)
same,GI50,M14,> 100 µM (inactive)
same,GI50,OVCAR-3,> 100 µM (inactive)
same,GI50,ACHN,> 100 µM (inactive)
same,GI50,SR,> 100 µM (inactive)
same,GI50,LOX IMVI,> 100 µM (inactive)
same,GI50,A498,> 100 µM (inactive)
same,GI50,HT-29,> 100 µM (inactive)
same,GI50,Hs-578T,> 100 µM (inactive)
same,GI50,Malme-3M,> 100 µM (inactive)
same,GI50,NCI/ADR-RES,> 100 µM (inactive)
